Assay results taken from patent publication US20180099931A1 (AbbVie S.à.r.l., priority 2016, published 2018).
Read-outs that look alike come from different tables or passages of the source.

Molecular target: T1, F508delCFTR (Homo sapiens, UniProt P13569, DEL508-508)
T1 construct: expressed in transfected cells; host or cells: CFBE41o- human lung-derived epithelial cells (CFBE4lo-F508delCFTR-HRP), doxycycline-inducible
Assay: Cell Surface Expression-Horse Radish Peroxidase (CSE-HRP) Assay;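 as to Maximum % activity (with co-corrector): co-corrector and positive control are both the same reference corrector at 2 µM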;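 as to Maximum % activity (without co-corrector): percent of the 2 µM on-plate positive control corrector response above DMSO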
Assay type: cell-based
Details: for Emax / Maximum % activity (with co-corrector) / Maximum % activity (without co-corrector): maximum at any tested concentration, normalized to on-plate positive control; for Emax: read-out: Maximum % activity (without co-corrector)

[1] = test compound without co-corrector
[2] = test compound without co-corrector, read-out: EC50 (without co-corrector)
[3] = with co-corrector (2 μM of 3-[(2R,4R)-4-({[1-(2,2-difluoro-1,3-benzodioxol-5-yl)cyclopropyl]carbonyl}amino)-7-methoxy-3,4-dihydro-2H-chromen-2-yl]benzoic acid)
[4] = with co-corrector (2 μM of 3-[(2R,4R)-4-({[1-(2,2-difluoro-1,3-benzodioxol-5-yl)cyclopropyl]carbonyl}amino)-7-methoxy-3,4-dihydro-2H-chromen-2-yl]benzoic acid), 2 µM
[5] = with co-corrector (2 μM of 3-[(2R,4R)-4-({[1-(2,2-difluoro-1,3-benzodioxol-5-yl)cyclopropyl]carbonyl}amino)-7-methoxy-3,4-dihydro-2H-chromen-2-yl]benzoic acid), read-out: EC50 (with co-corrector)
[6] = CSE-HRP, test compound without co-corrector, read-out: EC50 (without co-corrector)
[7] = CSE-HRP, with co-corrector (2 μM of 3-[(2R,4R)-4-({[1-(2,2-difluoro-1,3-benzodioxol-5-yl)cyclopropyl]carbonyl}amino)-7-methoxy-3,4-dihydro-2H-chromen-2-yl]benzoic acid), read-out: EC50 (with co-corrector)
[8] = CSE-HRP, with co-corrector (2 μM)

T1 sequence (P13569 with tags, fused parts or gaps DEL508-508): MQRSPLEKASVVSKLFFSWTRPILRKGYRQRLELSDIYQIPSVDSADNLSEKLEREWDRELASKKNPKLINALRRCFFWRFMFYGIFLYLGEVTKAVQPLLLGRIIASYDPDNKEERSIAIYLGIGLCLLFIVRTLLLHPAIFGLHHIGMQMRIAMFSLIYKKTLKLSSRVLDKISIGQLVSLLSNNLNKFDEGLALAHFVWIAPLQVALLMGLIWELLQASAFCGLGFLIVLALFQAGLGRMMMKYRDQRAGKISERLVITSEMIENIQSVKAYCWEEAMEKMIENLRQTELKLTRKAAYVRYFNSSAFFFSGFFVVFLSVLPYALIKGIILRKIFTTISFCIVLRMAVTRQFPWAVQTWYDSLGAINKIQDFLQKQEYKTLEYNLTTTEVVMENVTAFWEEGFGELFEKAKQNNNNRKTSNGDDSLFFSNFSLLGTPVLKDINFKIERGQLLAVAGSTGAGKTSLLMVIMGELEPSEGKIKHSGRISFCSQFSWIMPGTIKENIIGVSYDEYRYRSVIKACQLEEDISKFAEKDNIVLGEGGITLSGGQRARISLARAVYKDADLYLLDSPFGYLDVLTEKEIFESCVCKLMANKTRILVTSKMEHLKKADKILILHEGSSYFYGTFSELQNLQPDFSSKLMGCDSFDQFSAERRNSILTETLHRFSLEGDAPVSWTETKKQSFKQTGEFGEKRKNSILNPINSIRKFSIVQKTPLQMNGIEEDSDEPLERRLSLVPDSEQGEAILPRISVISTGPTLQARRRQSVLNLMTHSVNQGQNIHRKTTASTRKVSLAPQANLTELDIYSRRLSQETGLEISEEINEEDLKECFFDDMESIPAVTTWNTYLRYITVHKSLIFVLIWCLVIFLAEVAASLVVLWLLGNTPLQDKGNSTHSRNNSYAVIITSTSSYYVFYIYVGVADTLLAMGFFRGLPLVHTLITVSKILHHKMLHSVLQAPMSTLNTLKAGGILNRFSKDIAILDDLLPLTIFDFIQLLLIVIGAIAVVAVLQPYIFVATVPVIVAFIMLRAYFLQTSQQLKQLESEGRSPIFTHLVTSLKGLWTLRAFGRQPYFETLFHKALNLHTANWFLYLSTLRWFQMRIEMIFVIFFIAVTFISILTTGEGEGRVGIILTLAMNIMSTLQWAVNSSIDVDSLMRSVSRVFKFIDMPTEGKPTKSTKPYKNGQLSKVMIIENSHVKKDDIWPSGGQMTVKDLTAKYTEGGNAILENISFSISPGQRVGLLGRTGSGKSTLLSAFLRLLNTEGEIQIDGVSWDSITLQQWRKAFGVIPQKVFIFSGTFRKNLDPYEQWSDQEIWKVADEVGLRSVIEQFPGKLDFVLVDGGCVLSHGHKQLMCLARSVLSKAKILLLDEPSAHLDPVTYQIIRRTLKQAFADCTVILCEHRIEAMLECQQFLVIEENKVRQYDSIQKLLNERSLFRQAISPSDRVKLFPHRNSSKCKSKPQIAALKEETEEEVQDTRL

Row | SMILES | Emax [1] [%] | EC50 [2] [nM] | Maximum % activity (with co-corrector) [3] | EC50 [5] [nM] | Maximum % activity (with co-corrector) (with co-corrector (2 μM)) | Emax (without co-corrector) [%] | further results
1 | COc1nc(C(C)(C)C)ccc1CN[C@H]1[C@H](C(C)(C)C)[C@@H](C(=O)O)N(C(=O)C2Cc3ccccc3O2)[C@H]1c1ccccc1 (single isomer, unassigned) [II-430] | < 100 | < 1000 | ++ (≥150 and <350) | – | – | – | –
2 | COc1ccc(C(C)(C)C)cc1CN[C@H]1[C@H](C(C)(C)C)[C@@H](C(=O)O)N(C(=O)C2CCc3ccccc3O2)[C@H]1c1cccnc1N(C)C (single isomer, unassigned) [II-438] | < 100 | 1000 to 10000 | ++ (≥150 and <350) | – | – | – | –
3 | COc1ccc(C(C)(C)C)cc1CN[C@H]1[C@H](C(C)(C)C)[C@@H](C(=O)O)N(C(=O)C2CCCN(C)C2=O)[C@H]1c1ccccc1 (single isomer, unassigned) [II-444] | < 100 | 1000 to 10000 | ++ (≥150 and <350) | – | – | – | –
4 | COc1ccc(C(C)(C)C)cc1CN[C@H]1[C@H](C(C)(C)C)[C@@H](C(=O)O)N(C(=O)C2CCc3ccc(F)cc3O2)[C@H]1c1cccnc1N(C)C (single isomer, unassigned) [II-452] | 100 to 200 | 1000 to 10000 | – | 1000 to 10000 | – | – | Maximum % activity (with co-corrector) [4]: +++ (≥350)
5 | COc1ccc(C(C)(C)C)cc1CN[C@H]1[C@H](C(C)(C)C)[C@@H](C(=O)O)N(C(=O)C2CCc3ccc(F)cc3O2)[C@H]1c1cccnc1N(C)C (single isomer, unassigned) [II-453] | – | > 10000 | – | < 1000 | – | – | Maximum % activity (without co-corrector) [1]: + (<100); Maximum % activity (with co-corrector) [4]: ++ (≥150 and <350)
6 | COc1ccc(C(C)(C)C)cc1CN[C@H]1[C@H](C(C)(C)C)[C@@H](C(=O)O)N(C(=O)C2COc3ccccc3O2)[C@H]1c1cccnc1N(C)C (single isomer, unassigned) [II-471] | < 100 | > 10000 | ++ (≥150 and <350) | < 1000 | – | – | –
7 | COc1ccc(C(C)(C)C)cc1CN[C@H]1[C@H](C(C)(C)C)[C@@H](C(=O)O)N(C(=O)C2COc3ccccc3O2)[C@H]1c1cccnc1N(C)C (single isomer, unassigned) [II-472] | – | 1000 to 10000 | ++ (≥150 and <350) | 1000 to 10000 | – | – | Maximum % activity (without co-corrector) [1]: + (<100)
8 | COc1ccc(C(C)(C)C)cc1CN[C@H]1[C@H](C(C)(C)C)[C@@H](C(=O)O)N(C(=O)C2Cc3ccccc3CO2)[C@H]1c1cccnc1N(C)C (single isomer, unassigned) [II-480] | < 100 | 1000 to 10000 | +++ (≥350) | 1000 to 10000 | – | – | –
9 | COc1ccc(C(C)(C)C)cc1CN[C@H]1[C@H](C(C)(C)C)[C@@H](C(=O)O)N(C(=O)C2Cc3ccccc3CO2)[C@H]1c1cccnc1N(C)C (single isomer, unassigned) [II-481] | – | 1000 to 10000 | +++ (≥350) | 1000 to 10000 | – | – | Maximum % activity (without co-corrector) [1]: ++ (≥100 and <200)
10 | COc1ccc(C(C)(C)C)cc1CN[C@H]1[C@H](C(C)(C)C)[C@@H](C(=O)O)N(C(=O)C2CCCCO2)[C@H]1c1cccnc1OC(F)F (single isomer, unassigned) [II-489] | 100 to 200 | 1000 to 10000 | +++ (≥350) | 1000 to 10000 | – | – | –
11 | COc1ccc(C(C)(C)C)cc1CN[C@H]1[C@H](C(C)(C)C)[C@@H](C(=O)O)N(C(=O)C2CCCCO2)[C@H]1c1cccnc1OC(F)F (single isomer, unassigned) [II-490] | – | 1000 to 10000 | +++ (≥350) | – | – | – | –
12 | COc1cc(C(F)(F)F)ccc1CN[C@@H]1[C@@H](C(C)(C)C)[C@H](C(=O)O)N(C(=O)C(C)c2ccccc2)[C@@H]1c1ccccc1 (single isomer, unassigned) [III-112] | < 100 | 1000 to 10000 | – | 1000 to 10000 | ++ (≥150 and <350) | – | –
13 | COc1ccc(C(C)(C)C)cc1CN[C@H]1[C@H](C(C)(C)C)[C@@H](C(=O)O)N(C(=O)C(C)n2cc(Cl)c(C)n2)[C@H]1c1ccccc1 (single isomer, unassigned) [III-182] | – | – | – | – | – | – | EC50 [6]: 1000 to 10000 nM; EC50 [7]: 1000 to 10000 nM; Maximum % activity (with co-corrector) [8]: +++ (≥350); Maximum % activity (without co-corrector) (CSE-HRP, without co-corrector): +++ (≥200)
14 | COc1cc(C(F)(F)F)ccc1CN[C@H]1[C@H](C(C)(C)C)[C@@H](C(=O)O)N(C(=O)C2CCCCC2)[C@H]1c1ccccc1OC (stereo in doubt) [II-50] | – | – | – | – | – | – | EC50 [6]: < 1000 nM; EC50 [7]: < 1000 nM; Maximum % activity (with co-corrector) [8]: +++ (≥350); Emax (CSE-HRP, without co-corrector): 100 to 200%
15 | COc1cc(C(F)(F)F)ccc1CN[C@@H]1[C@@H](C(C)(C)C)[C@H](C(=O)O)N(C(=O)C2CCCCC2)[C@@H]1c1ccccc1OC (stereo in doubt) [III-40] | 100 to 200 | 1000 to 10000 | +++ (≥350) | < 1000 | – | – | –
16 | Cc1cc(C(F)(F)F)cc(N[C@@H]2[C@@H](C(C)(C)C)[C@H](C(=O)O)N(C(=O)C3CCCCC3)[C@@H]2c2ccccc2)n1 [Example 3, (2R,3R,4R,5R)-3-tert-butyl-1-(cyclohexanecarbonyl)-4-{[6-methyl-4-(trifluoromethyl)pyridin-2-yl]amino}-5-phenylpyrrolidine-2-carboxylic acid] | – | 1000 to 10000 | – | 1000 to 10000 | ++ (≥150 and <350) | < 100 | –
17 | Cc1cc(C(F)(F)F)cc(N[C@H]2[C@H](C(C)(C)C)[C@@H](C(=O)O)N(C(=O)C3CCCCC3)[C@H]2c2ccccc2)n1 [Example 4, (2S,3S,4S,5S)-3-tert-butyl-1-(cyclohexanecarbonyl)-4-{[6-methyl-4-(trifluoromethyl)pyridin-2-yl]amino}-5-phenylpyrrolidine-2-carboxylic acid] | – | 1000 to 10000 | – | 1000 to 10000 | +++ (≥350) | < 100 | –
18 | COc1ccc(C(C)(C)C)cc1CN[C@H]1[C@H](C(C)(C)C)[C@@H](C(=O)O)N(C(=O)C2CCCCC2)[C@H]1c1ccccc1 [Example 7, (2S,3S,4S,5S)-3-tert-butyl-4-{[(5-tert-butyl-2-methoxyphenyl)methyl]amino}-1-(cyclohexanecarbonyl)-5-phenylpyrrolidine-2-carboxylic acid] | – | < 1000 | – | < 1000 | +++ (≥350) | > 200 | –
19 | COc1cc(C(F)(F)F)ccc1CN[C@H]1[C@H](C(C)(C)C)[C@@H](C(=O)O)N(C(=O)C2CCCCC2)[C@H]1c1ccccc1 [Example 8, (2S,3S,4S,5S)-3-tert-butyl-1-(cyclohexanecarbonyl)-4-({[2-methoxy-4-(trifluoromethyl)phenyl]methyl}amino)-5-phenylpyrrolidine-2-carboxylic acid] | – | 1000 to 10000 | – | < 1000 | +++ (≥350) | 100 to 200 | –
20 | COc1ccc(C(F)(F)F)cc1CN[C@H]1[C@H](C(C)(C)C)[C@@H](C(=O)O)N(C(=O)C2CCCCC2)[C@H]1c1ccccc1 [Example 9, (2S,3S,4S,5S)-3-tert-butyl-1-(cyclohexanecarbonyl)-4-({[2-methoxy-5-(trifluoromethyl)phenyl]methyl}amino)-5-phenylpyrrolidine-2-carboxylic acid] | – | < 1000 | – | < 1000 | +++ (≥350) | 100 to 200 | –
21 | COc1cc(C(F)(F)F)ccc1CN[C@H]1[C@H](C(C)(C)C)[C@@H](C(=O)O)N(C(=O)[C@@H]2CCCCO2)[C@H]1c1ccccc1 [Example 10, (2S,3S,4S,5S)-3-tert-butyl-4-({[2-methoxy-4-(trifluoromethyl)phenyl]methyl}amino)-1-[(2S)-oxane-2-carbonyl]-5-phenylpyrrolidine-2-carboxylic acid] | – | 1000 to 10000 | – | 1000 to 10000 | +++ (≥350) | > 200 | –
22 | COc1ncc(C(F)(F)F)cc1CN[C@H]1[C@H](C(C)(C)C)[C@@H](C(=O)O)N(C(=O)C2CCCCC2)[C@H]1c1ccccc1 [Example 12, (2S,3S,4S,5S)-3-tert-butyl-1-(cyclohexanecarbonyl)-4-({[2-methoxy-5-(trifluoromethyl)pyridin-3-yl]methyl}amino)-5-phenylpyrrolidine-2-carboxylic acid] | – | < 1000 | – | < 1000 | +++ (≥350) | 100 to 200 | –
23 | COc1ccc(C(C)(C)C)cc1CN[C@H]1[C@H](C(C)(C)C)[C@@H](C(=O)O)N(C(=O)OC(C)C)[C@H]1c1ccccc1OC [Example 13, (2S,3S,4S,5S)-3-tert-butyl-4-{[(5-tert-butyl-2-methoxyphenyl)methyl]amino}-5-(2-methoxyphenyl)-1-{[(propan-2-yl)oxy]carbonyl}pyrrolidine-2-carboxylic acid] | – | 1000 to 10000 | – | 1000 to 10000 | +++ (≥350) | 100 to 200 | –
